# Values quoted from earlier work in patent US8652520B2, “Combination tablet with chewable outer layer” (Vitalis LLC, priority 2007, dated 2014).
# How the values were obtained:
# [1] = risk of bleeding peptic ulcer, literature
# [2] = system: anti-platelet activity of aspirin; conditions: co-administered with aspirin, literature
compound,measurement,setting,value
"CC(C)Cc1ccc(C(C)C(=O)O)cc1 (stereo not drawn) [ibuprofen, 2-[4-(2-methylpropyl)phenyl]propanoic acid]",GI side effects among the NSAID agents,[1],least GI side effects
same,anti-platelet activity of aspirin when given in conjunction,[2],decreased
O=C(O)Cc1ccccc1Nc1c(Cl)cccc1Cl [diclofenac],GI side effects among the NSAID agents,[1],least GI side effects
